Test results as given in patent US8809001B2, “High throughput assays for inhibitors and activators of PAQR receptors” (University of Florida Research Foundation, Inc., priority 2007, dated 2014).
Like-named read-outs stand apart in the source and are kept apart here.

Key:
mPRα = target: T1, mPRα (Homo sapiens, UniProt Q86WK9); test: cell-based; details: for activation of mPRα, alterations at the 17 and 21 positions of the pregnane ring (in words): further analysis of mPRα (pRS316 plasmid, 2% galactose per FIG. 7C); for agonist activity on mPRα (in words): FET3-lacZ, steroids up to 10 μM
T1 construct: Full length and truncated mPRγ and mPRα were expressed in wild type cells grown in 2% galactose from the pGREG536 vector; expressed in transfected cells; host or cells: Saccharomyces cerevisiae (BY4742 wild type; also gpa mutants), GAL1-driven plasmids (TPI1 promoter in pJK90)
T1 sequence (Q86WK9 1-346): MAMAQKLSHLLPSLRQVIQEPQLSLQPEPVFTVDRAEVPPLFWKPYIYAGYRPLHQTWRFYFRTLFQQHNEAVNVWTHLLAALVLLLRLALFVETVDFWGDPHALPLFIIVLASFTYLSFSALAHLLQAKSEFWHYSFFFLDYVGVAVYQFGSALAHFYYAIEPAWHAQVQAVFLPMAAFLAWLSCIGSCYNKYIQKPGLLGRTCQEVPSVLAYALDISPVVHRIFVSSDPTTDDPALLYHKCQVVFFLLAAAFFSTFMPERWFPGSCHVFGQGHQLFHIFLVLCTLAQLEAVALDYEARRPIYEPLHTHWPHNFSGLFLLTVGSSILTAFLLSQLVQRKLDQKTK
Description: Plasmids and primers. Human PAQRs were cloned into various vectors by PCR from commercially/publically available cDNAs. […] The OST4 open reading frame in pJK90 was replaced with the PAQR6 and mPRα open reading frames by gap repair. Primers for all cloning reactions are listed herein. Proteins expressed in pYES260 have an N-terminal 6×-histidine tag followed by a TEV protease cleavage site. Proteins expressed in pGREG536 have an N-terminal 7×-HA tag. Proteins expressed in the pRS316 vector are untagged. The pYES260, pRS316 and pGREG536 vectors allow for galactose-inducible expression via the GAL1 promoter. […] A pRS316-based plasmid containing the STE2 gene under the control of the GAL1 promoter (Feng et al., 2000) was kindly provided by Dr. Nicholas G. Davis (Wayne State University).
Assays and growth conditions. Strains were maintained using standard protocol and grown in synthetic defined (SD) media with the appropriate amino acids to match the auxotrophies of the individual strains. […] In brief, overnights of cells grown in SD-glucose media were re-inoculated into iron-deficient LIM to induce the expression of FET3. […] All ligands were added to the growth medium upon re-inoculation into LIM. For experiments in which steroids were added as ligands, steroids were added from ethanol stocks and “untreated” controls are actually treated with an equal volume of ethanol to control for vehicle effects. […] All experiments were performed at least three times and a representative experiment is shown. EC50 values were obtained using the web-based BioDataFit software using sigmoidal curve-fitting. (web site changbioscience.com/stat/ec50.html)

mPRγ = target: T2, mPRγ (Homo sapiens, UniProt Q9NXK6); test: FET3-lacZ reporter repression in yeast expressing mPRγ; assay type: cell-based; details: for agonist activity on mPRγ (in words): FET3-lacZ, steroids up to 10 μM
T2 construct: Full length and truncated mPRγ and mPRα were expressed in wild type cells grown in 2% galactose from the pGREG536 vector; expressed in transfected cells; host or cells: Saccharomyces cerevisiae (BY4742 wild type; also gpa mutants), GAL1-driven plasmids
T2 sequence (Q9NXK6 1-330): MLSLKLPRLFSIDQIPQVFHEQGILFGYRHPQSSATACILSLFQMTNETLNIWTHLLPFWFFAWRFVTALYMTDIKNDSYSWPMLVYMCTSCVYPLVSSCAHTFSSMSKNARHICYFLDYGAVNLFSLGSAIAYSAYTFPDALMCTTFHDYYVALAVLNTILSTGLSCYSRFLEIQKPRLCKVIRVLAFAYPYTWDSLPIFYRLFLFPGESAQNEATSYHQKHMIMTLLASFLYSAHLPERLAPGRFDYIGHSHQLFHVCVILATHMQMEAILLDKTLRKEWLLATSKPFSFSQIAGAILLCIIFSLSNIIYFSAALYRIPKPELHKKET
Description: Plasmids and primers. Human PAQRs were cloned into various vectors by PCR from commercially/publically available cDNAs. PAQRs were cloned into the pYES260 (Melcher, 2000), pRS316 (Liu et al., 1992) or pGREG536 (Jansen et al., 2005) expression vectors using gap repair. The pJK90 plasmid containing a Dual Topology Reporter (DTR)-tagged OST4 gene driven by the constitutive TPI1 promoter was kindly provided by Dr. Gunnar von Heijne (Stockholm University) (Kim et al., 2003). The OST4 open reading frame in pJK90 was replaced with the PAQR6 and mPRα open reading frames by gap repair. Primers for all cloning reactions are listed herein. Proteins expressed in pYES260 have an N-terminal 6×-histidine tag followed by a TEV protease cleavage site. Proteins expressed in pGREG536 have an N-terminal 7×-HA tag. Proteins expressed in the pRS316 vector are untagged. The pYES260, pRS316 and pGREG536 vectors allow for galactose-inducible expression via the GAL1 promoter. […] The FET3-lacZ plasmid was previously described (Kupchak et al., 2007). Plasmids derived from pADM4 carrying hyperactive alleles of Gpa1p (Gpa1p^Q323L) (Slessareva et al., 2006) and Gpa2p (Gpa2p^Q300L) (Harashima et al., 2002) driven by the ADH1 promoter were kindly provided by Dr. Henrik Dohlman (UNC Chapel Hill). A pRS316-based plasmid containing the STE2 gene under the control of the GAL1 promoter (Feng et al., 2000) was kindly provided by Dr. Nicholas G. Davis (Wayne State University).
(§1) Assays and growth conditions. Strains were maintained using standard protocol and grown in synthetic defined (SD) media with the appropriate amino acids to match the auxotrophies of the individual strains. Low Iron Medium (LIM) contains EDTA to limit iron-bioavailability and its composition has been previously described (Kupchak et al., 2007). […] In brief, overnights of cells grown in SD-glucose media were re-inoculated into iron-deficient LIM to induce the expression of FET3. 2% galactose was used as a carbon source to induce full expression of PAQR genes driven by the GAL1 promoter, while 0.05% galactose/1.95% raffinose was used for reduced PAQR expression. All ligands were added to the growth medium upon re-inoculation into LIM. For experiments in which steroids were added as ligands, steroids were added from ethanol stocks and “untreated” controls are actually treated with an equal volume of ethanol to control for vehicle effects. Cells were allowed to grow to mid-log phase at which time the activity of the FET3 gene was monitored using a FET3-lacZ promoter-reporter construct. lacZ activities are presented as a percentage of activity seen in untreated cells expressing the appropriate empty expression vector control. For individual experiments, each data point has been done in triplicate and the error bars represent +/−1 standard deviation. All experiments were performed at least three times and a representative experiment is shown. EC50 values were obtained using the web-based BioDataFit software using sigmoidal curve-fitting. (web site changbioscience.com/stat/ec50.html)

FET3 = test: FET3-lacZ reporter in wild type yeast carrying empty expression plasmid; assay type: cell-based, Saccharomyces cerevisiae; details: no human PAQR
Description: as §1

[1] = read-out: EC50 for the activation of mPRα

SMILES	activation of mPRα, alterations at the 17 and 21 positions of the pregnane ring (in words) (mPRα)	agonist activity on mPRα (in words) (mPRα)	agonist activity on mPRγ (in words) (mPRγ)	EC50 (mPRα; [1])	further results
C[C@]12CCC(=O)C=C1CC[C@@H]1[C@@H]2[C@@H](O)C[C@@]2(C)[C@H]1CC[C@]2(O)C(=O)CO [11β,17α,21-trihydroxyprogesterone]	ineffective agonist				
CC#C[C@]1(O)CC[C@H]2[C@@H]3CCC4=CC(=O)CCC4=C3[C@@H](c3ccc(N(C)C)cc3)C[C@@]21C [RU-486, Mifepristone]		weak agonist	weak agonist		EC50 (mPRα; EC50, mPRα, ligand alone): 11 µM; increase in the EC50 of progesterone for the activation of mPRγ (mPRγ; exposure of cells to 100 nM RU-486): 15 fold; antagonism of mPRγ (mPRγ; in the presence of 100 nM progesterone, effect disappears at higher concentrations): weakly antagonizes; EC50 (mPRγ; mPRγ column of Table 4, ligand alone): 6.8 µM; EC50 (mPRγ; mPRγ, weak agonist at high concentrations): > 5 µM; effect of ligand on FET3 in cells carrying empty expression plasmid (FET3): had no effect
C[C@]12CCC(=O)C=C1CC[C@@H]1[C@@H]2CC[C@@]2(C)[C@H]1CC[C@]2(O)C(=O)CO [17α,21-dihydroxyprogesterone]	similarly effective activators			~0.01 µM	
C[C@]12CC[C@H]3[C@@H](CCC4=CC(=O)CC[C@@]43C)[C@@H]1CC[C@@H]2O [testosterone]		no agonist activity	no agonist activity		increase of the EC50 of progesterone for mPRγ (mPRγ; in the presence of 10 μM of the named steroid): 10 fold
C[C@]12CC[C@H]3[C@@H](CCC4=CC(=O)CC[C@@]43C)[C@@H]1CC[C@@H]2C(=O)CO [21-hydroxyprogesterone]	similarly effective activators			~0.01 µM	
